Data from paper PMC8826081, “Three-Carbon Linked Dihydroartemisinin-Isatin Hybrids: Design, Synthesis and Their Antiproliferative Anticancer Activity” (Frontiers in Pharmacology, 2022).

Assays:
[1] = Metabolic stability in mouse liver microsomes; type: in vitro ADME; conditions: in vitro stability
[2] = system: A549, A549/DOX and A549/DDP lung cancer cell lines; test: MTT antiproliferative activity, summarised over the three lung cancer cell lines; type: cell-based; conditions: for IC50: MTT assay, span of values over the three lung cancer cell lines, read-out: IC50 (range over A549, A549/DOX and A549/DDP); for times superior to cisplatin and doxorubicin: against multidrug-resistant A549/DOX and A549/DDP; for RI (drug resistance index: IC50(MDR A549)/IC50(A549)): span over RI1 and RI2
Excerpt: (§1) 3-(4,5-dimethylthiazol-2-yl)-2,5-diphenyltetrazolium bromide (MTT) assay was used to determined the antiproliferative activity of dihydroartemisinin-isatin hybrids 5a-e and 6a-j with three-carbon linker against A549, multidrug-resistant A549/DOX and A549/DDP lung cancer cell lines as well as cytotoxicity towards normal lung epithelial cell line (BEAS-2B). The inhibitory effects were expressed in terms of half maximal inhibitory concentration (IC50) values.
(§2) A549, A549/DOX, and A549/DDP lung cancer cells (2×10^3) were plated in each well of a 96-well plate and were allowed to adhere and spread for 24 h. The […] were added to a final concentration of 100 µM, and the cells were cultured for 24 h at 37 °C. 3-(4,5-dimethyl-2-thiazolyl)-2,5-diphenyltetrazolium bromide (MTT) solution (10 µL) was added to each well, and the cultures were incubated for an additional 4 h. A further 100 µL of […] was added and incubation continued overnight. The absorbance at 540 nm was determined in each well with a 96-well plate reader. The growth of the treated cells was compared with that of untreated cells.

in vitro = conditions: human
Procedure: as §1
(§3) The compounds were dissolved in DMSO with concentrations from 1024 to 1 μg/mL. The NIH/3T3 cells were maintained in culture medium at 37 °C under 5% CO2 atmosphere. Cells were seeded in 96-well plates (1×10^4 cell per well) and allowed to recover for 24 h. After 72 h of exposure, cells were harvested and cell viability was assessed by MTT assay. The CC50 values were calculated by Bliss analysis.

[3] = system: BEAS-2B normal lung epithelial cell line; test: MTT cytotoxicity towards normal lung epithelial cells; conditions: IC50(BEAS-2B)/IC50(A549)
Procedure: as §1, §3

[4] = Pharmacokinetic properties in CD-1 mice; type: in vivo; conditions: mouse, plasma; for bioavailability: 30 mg/kg, read-out: F (bioavailability); for AUC / Cmax / clearance / half-life / Tmax: single intravenous dose of 30 mg/kg; for Tmax: read-out: tmax (peak time) (converted)
Procedure: CD-1 mice model was administered with single intravenous […]) dose of 30 mg/kg to test the pharmacokinetic properties of hybrid 6a, e.
CD-1 mice mice (20-25 g) were used in the pharmacokinetic study, and each treatment group had 3 mice which were dosed with […] suspension at 30 mg/kg by single intravenous (iv) administration. Compounds were suspended in 0.5% CMC for iv, and blood was collected from the jugular vein of each mouse at the following time points: 0.25, 0.5, 1, 2, 4, 6, 8 and 24 h after […] administration. Total area under the concentration time curve (AUC), the elimination half-time (t1/2), the peak concentration (Cmax) and the time to reach peak concentration (Tmax) of samples were determined directly from the experimental data using WinNonlin V6.2.1.

[5] = system: A549/DDP (cisplatin-resistant A549 cells); test: MTT antiproliferative activity against cisplatin-resistant A549; type: cell-based; conditions: for IC50: Homo sapiens, MTT assay, cisplatin-resistant A549 cells
Excerpt: as §1, §2

[6] = system: A549/DOX (doxorubicin-resistant A549 cells); test: MTT antiproliferative activity against doxorubicin-resistant A549; type: cell-based; conditions: for IC50: Homo sapiens, MTT assay, doxorubicin-resistant A549 cells
Excerpt: as §1, §2

A549 lung cancer cells = test: MTT antiproliferative activity against A549; type: cell-based; conditions: Homo sapiens; MTT assay, drug-sensitive A549
Excerpt: as §1, §2

[7] = Metabolic stability in human liver microsomes; type: in vitro ADME; conditions: in vitro stability

Row | Liver microsomes Mouse [1] [%] | IC50 [2] [µM] | RI (drug resistance index: IC50(MDR A549)/IC50(A549)) [2] | IC50 (in vitro) [µM] | bioavailability [4] [%] | AUC [4] [ng·h/mL] | Cmax [4] [µM] | clearance [4] [mL/min/kg] | half-life [4] [h] | Tmax [4] [h] | IC50 [5] [µM] | IC50 [6] [µM] | RI1 (Resistance index: IC50(A549/DOX)/IC50(A549)) [6] | IC50 (A549 lung cancer cells) [µM] | Liver microsomes Human [7] [%] | RI2 (Resistance index: IC50(A549/DDP)/IC50(A549)) ([5]; IC50(A549/DDP)/IC50(A549)) | SMILES | times superior to cisplatin and doxorubicin [2] | SI (Selectivity index: IC50(BEAS-2B)/IC50(A549)) [3]
1 | 70 | 5.72 to 9.84 | 1.03–1.66 | > 100 | 39.7 | 2350 | 18.9 | 62.3 | 3.1 | 0.267 | 9.84 | 7.35 | 1.28 | 5.72 | 62 |  | C[C@@H]1CC[C@H]2[C@@H](C)C(OCCCN3C(=O)C(=NO)c4ccccc43)O[C@@H]3O[C@@]4(C)CC[C@@H]1[C@]32OO4 (stereo partly drawn) [6a, 3-(hydroxyimino)-1-(3-(((3R,5aS,6R,8aS,9R,12R,12aR)-3,6,9-trimethyldecahydro-12H-3,12-epoxy[1,2]dioxepino[4,3-i]isochromen-10-yl)oxy)propyl)indolin-2-one] | 1.5–10.8 times | >17.4
2 | 54 | 5.72 to 9.84 | 1.03–1.66 | > 100 | 30.8 | 1670 | 10.7 | 44.8 | 4.7 | 0.2 | 6.17 | 8.93 | 1.49 | 5.99 | 51 | 1.03 | C[C@@H]1CC[C@H]2[C@@H](C)C(OCCCN3C(=O)C(=NNC(N)=S)c4cc(F)ccc43)O[C@@H]3O[C@@]4(C)CC[C@@H]1[C@]32OO4 (stereo partly drawn) [6e, 2-(5-fluoro-2-oxo-1-(3-(((3R,5aS,6R,8aS,9R,12R,12aR)-3,6,9-trimethyldecahydro-12H-3,12-epoxy[1,2]dioxepino[4,3-i]isochromen-10-yl)oxy)propyl)indolin-3-ylidene)hydrazine-1-carbothioamide] | 1.5–10.8 times | >16.6
